Tested on: not given
Test: not given
Details: not given

Row | melting point [°C] | Structure (SMILES)
1 | 245 | CCn1c(N)c(C(=O)NCCN2CCOCC2)c(=O)c2ccc(-c3ccc(NC(=O)NCc4cccnc4)cc3)nc21 [No. 30, 2-Amino-1-ethyl-4-oxo-7-[4-(3-pyridin-3-ylmethylureido)phenyl]-1,4-dihydro[1,8]naphthyridine-3-carboxylic acid (2-morpholin-4-ylethyl)amide]

Tested on: HCT116 tumour line (ref. ATCC-CCL247)
Test: MTS proliferation and cell viability test on the HCT116 tumour line
Format: cell-based
Details: Homo sapiens, HCT-116, incubation of the tested compound for 72 h, 50% loss of proliferation and of cell viability
Experimental: The proliferation and the cell viability were determined in a test using 3-(4,5-dimethylthiazol-2-yl)-5-(3-carboxymethoxyphenyl)-2-(4-sulfophenyl)-2H-tetrazolium (MTS) according to Fujishita T. et al. Oncology 2003, 64(4), 399-406 (see page 401). In this test, the mitochondrial capacity of the living cells for converting the MTS into a coloured compound, after incubation of the tested compound for 72 h, is measured. IC50 (nM) denotes the concentration of compound which results in a 50% loss of proliferation and of cell viability.
The compounds of Table I were the subject of in vitro experimental tests on the HCT116 tumour line (ref. ATCC-CCL247).

Row | Structure (SMILES) | IC50 [nM]
2 | CCn1c(N)c(C(=O)NC)c(=O)c2ccc(-c3ccc(NC(=O)NCc4cccnc4)cc3)nc21 [No. 1, 2-Amino-1-ethyl-4-oxo-7-[4-(3-pyridin-3-ylmethylureido)phenyl]-1,4-dihydro[1,8]naphthyridine-3-carboxylic acid methylamide] | 0.2 to 0.5
3 | CCn1c(N)c(C(=O)NCCN2CCOCC2)c(=O)c2ccc(-c3ccc(NC(=O)NCc4cccnc4)cc3)nc21 [No. 30, 2-Amino-1-ethyl-4-oxo-7-[4-(3-pyridin-3-ylmethylureido)phenyl]-1,4-dihydro[1,8]naphthyridine-3-carboxylic acid (2-morpholin-4-ylethyl)amide] | 0.1
4 | CCn1c(NCCN2CCN(C)CC2)c(C(=O)NCCN2CCN(C)CC2)c(=O)c2ccc(-c3ccc(NC(=O)NCc4cccnc4)cc3)nc21 [No. 46, 1-Ethyl-2-[2-(4-methyl-piperazin-1-yl)-ethylamino]-4-oxo-7-[4-(3-pyridin-3-ylmethylureido)phenyl]-1,4-dihydro[1,8]naphthyridine-3-carboxylic acid [2-(4-methylpiperazin-1-yl)ethyl]amide] | 1.9
5 | CCn1c(N)c(C(=O)NC)c(=O)c2cnc(-c3ccc(NC(=O)NCc4cccnc4)cc3)nc21 [No. 53, 7-Amino-8-ethyl-5-oxo-2-[4-(3-pyridin-3-ylmethylureido)phenyl]-5,8-dihydro-pyrido[2,3-d]pyrimidine-6-carboxylic acid methylamide] | 6
6 | CCn1c(NCC2CCCO2)c(C(=O)NCC2CCCO2)c(=O)c2ccc(-c3ccc(NC(=O)NCc4cccnc4)cc3)cc21 (centres unmarked) [No. 59, 1-Ethyl-4-oxo-7-[4-(3-pyridin-3-ylmethylureido)phenyl]-2-[(tetrahydrofuran-2-ylmethyl)amino]-1,4-dihydroquinoline-3-carboxylic acid (tetrahydrofuran-2-ylmethyl)amide] | 0.47
7 | CCn1c(NCCN(C(C)C)C(C)C)c(C(=O)NCCN(C(C)C)C(C)C)c(=O)c2ccc(-c3ccc(NC(=O)NCc4cccnc4)cc3)cc21 [No. 60, 2-(2-Diisopropylaminoethylamino)-1-ethyl-4-oxo-7-[4-(3-pyridin-3-ylmethylureido)phenyl]-1,4-dihydroquinoline-3-carboxylic acid (2-diisopropylaminoethyl)amide] | 0.1

Continued, values first:

Row | IC50 [nM] | Structure (SMILES)
8 | 2 | CCn1c(N)c(C(=O)NC)c(=O)c2ccc(-c3ccc(NC(=O)/C=C/c4cccnc4)cc3)nc21 [No. 7, 2-Amino-1-ethyl-4-oxo-7-[4-((E)-3-pyridin-3-yl-acryloylamino)phenyl]-1,4-dihydro[1,8]naphthyridine-3-carboxylic acid methylamide]
9 | < 1 | CCOC(=O)c1c(N)n(CC)c2nc(-c3ccc(NC(=O)NCc4cccnc4)cc3)ccc2c1=O [No. 10, 2-Amino-1-ethyl-4-oxo-7-[4-(3-pyridin-3-ylmethylureido)phenyl]-1,4-dihydro[1,8]naphthyridine-3-carboxylic acid ethyl ester]
10 | 6 | CCn1c(N)c(C(=O)O)c(=O)c2ccc(-c3ccc(NC(=O)NCc4cccnc4)cc3)nc21 [No. 13, 2-Amino-1-ethyl-4-oxo-7-[4-(3-pyridin-3-ylmethylureido)phenyl]-1,4-dihydro[1,8]naphthyridine-3-carboxylic acid]
11 | 0.1 | CCn1c(N)c(C(=O)NC)c(=O)c2ccc(-c3ccc(NC(=O)NCc4cccnc4)cc3)cc21 [No. 27, 2-Amino-1-ethyl-4-oxo-7-[4-(3-pyridin-3-ylmethylureido)phenyl]-1,4-dihydroquinoline-3-carboxylic acid methylamide]
12 | 0.19 | CCn1c(N)c(C(N)=O)c(=O)c2ccc(-c3ccc(NC(=O)NCc4cccnc4)cc3)cc21 [No. 56, 2-Amino-1-ethyl-4-oxo-7-[4-(3-pyridin-3-ylmethylureido)phenyl]-1,4-dihydroquinoline-3-carboxylic acid amide]
13 | 0.26 | CCn1c(NCCN2CCCC2C)c(C(=O)NCCN2CCCC2C)c(=O)c2ccc(-c3ccc(NC(=O)NCc4cccnc4)cc3)nc21 (centres unmarked) [No. 57, 1-Ethyl-2-[2-(2-methyl-pyrrolidin-1-yl)-ethylamino]-4-oxo-7-[4-(3-pyridin-3-ylmethylureido)phenyl]-1,4-dihydro[1,8]naphthyridine-3-carboxylic acid [2-(2-methylpyrrolidin-1-yl)ethyl]amide]
14 | 0.1 | CCn1c(NCCN2CCCC2)c(C(=O)NCCN2CCCC2)c(=O)c2ccc(-c3ccc(NC(=O)NCc4cccnc4)cc3)cc21 [No. 61, 1-Ethyl-4-oxo-7-[4-(3-pyridin-3-ylmethylureido)phenyl]-2-(2-pyrrolidin-1-ylethylamino)-1,4-dihydroquinoline-3-carboxylic acid (2-pyrrolidin-1-ylethyl)amide]
